Measurements as given in ChEMBL document CHEMBL1201862, “PubChem BioAssay data set” (2004).
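In this assay, cells in 96-well plates receive the compound at five concentrations for 48 hours. Endpoints are linearly interpolated between the surrounding concentrations. GI50 marks 50% less growth.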 The source made the active and inactive calls. Rule as the data show it: active = GI50 up to about 1.1 µM and inactive = higher.

How the values were obtained:
Assay in all cases: inhibition of tumour cell growth, NCI panel, 48 h
[1] = system: SF-268
[2] = system: KM12
[3] = system: RPMI-8226
[4] = system: OVCAR-4
[5] = system: HOP-92
[6] = system: LOX IMVI
[7] = system: SK-MEL-2
[8] = system: MCF7
[9] = system: UO-31
[10] = system: HL-60
[11] = system: SW-620
[12] = system: U-251
[13] = system: NCI-H23
[14] = system: SF-539
[15] = system: UACC-62
[16] = system: NCI-H460
[17] = system: PC-3
[18] = system: Hs-578T
[19] = system: 786-0
[20] = system: A498
[21] = system: MOLT-4
[22] = system: HCC 2998
[23] = system: MDA-MB-435
[24] = system: Malme-3M
[25] = system: CCRF-CEM
[26] = system: MDA-MB-231
[27] = system: T47D
[28] = system: SF-295
[29] = system: EKVX
[30] = system: SNB-19
[31] = system: OVCAR-3
[32] = system: RXF 393
[33] = system: SNB-75
[34] = system: UACC-257
[35] = system: NCI-H522
[36] = system: SK-MEL-28
[37] = system: COLO 205
[38] = system: MDA-N
[39] = system: CAKI-1
[40] = system: A549
[41] = system: SR
[42] = system: SK-MEL-5
[43] = system: TK-10
[44] = system: OVCAR-5
[45] = system: HCT-116
[46] = system: M14
[47] = system: K562
[48] = system: SN12C
[49] = system: ACHN
[50] = system: HOP-62
[51] = system: IGROV-1
[52] = system: HCT-15
[53] = system: BT-549
[54] = system: DU-145
[55] = system: SK-OV-3
[56] = system: HT-29
[57] = system: OVCAR-8
[58] = system: NCI-H226

Measured: GI50

CCOP(=O)(CC1OC(CO)C(O)C1O)OCC (centres undefined)
inactive: [1] > 100 µM | [2] > 100 µM | [3] > 100 µM | [4] > 100 µM | [5] > 100 µM | [6] > 100 µM | [7] > 100 µM | [8] > 100 µM | [9] > 100 µM | [10] > 100 µM | [11] > 100 µM | [12] > 100 µM | [13] > 46.7 µM | [14] > 100 µM | [15] > 100 µM | [16] > 100 µM | [17] > 100 µM | [18] > 100 µM | [19] > 100 µM | [20] > 100 µM | [21] > 100 µM | [22] > 100 µM | [23] > 100 µM | [24] > 100 µM | [25] > 100 µM | [26] > 100 µM | [27] > 100 µM | [28] > 100 µM | [29] > 100 µM | [30] > 100 µM | [31] > 100 µM | [32] > 100 µM | [33] > 100 µM | [34] > 100 µM | [35] > 100 µM | [36] > 100 µM | [37] > 100 µM | [38] > 100 µM | [39] > 100 µM | [40] > 100 µM | [41] > 100 µM | [42] > 100 µM | [43] > 100 µM | [44] > 100 µM | [45] > 100 µM | [46] > 100 µM | [47] > 100 µM | [48] > 100 µM | [49] > 100 µM | [50] > 100 µM | [51] > 100 µM | [53] > 100 µM | [54] > 100 µM | [55] > 100 µM
> 100 µM: [52]

Cc1ncc2c(n1)CCC1=C2OS(=O)(=O)CC1N(C)C (centres undefined)
inactive: [1] > 100 µM | [56] > 100 µM | [2] > 100 µM | [3] > 100 µM | [4] > 100 µM | [6] > 100 µM | [8] > 100 µM | [9] > 100 µM | [10] > 100 µM | [11] > 100 µM | [12] > 100 µM | [13] > 100 µM | [14] > 100 µM | [15] 96.6 µM | [16] > 100 µM | [17] > 100 µM | [18] > 100 µM | [19] > 100 µM | [57] > 100 µM | [20] 58.2 µM | [21] > 100 µM | [23] > 100 µM | [25] 80.5 µM | [26] > 100 µM | [27] 63.1 µM | [29] > 100 µM | [30] > 100 µM | [58] > 100 µM | [31] > 100 µM | [33] > 100 µM | [34] > 100 µM | [35] 31.8 µM | [36] > 100 µM | [37] > 100 µM | [38] > 100 µM | [39] 69.5 µM | [40] > 100 µM | [41] > 100 µM | [42] 70 µM | [43] > 100 µM | [44] > 100 µM | [45] 98.2 µM | [46] 95.9 µM | [47] > 100 µM | [48] > 100 µM | [49] > 100 µM | [50] 76.6 µM | [51] > 100 µM | [53] > 100 µM | [54] > 100 µM | [55] > 100 µM

COC(=O)C1C(O)C(C)C(O)C(C)/C=C\C=C(C)C(=O)Nc2c(C)c(OC(C)=O)c3c(c2O)C(=O)C(C)=C2OCOC(=C23)C(C)=CC(C)(O)C(O)C(C)C1O (centres undefined)
inactive: [1] 68.4 µM | [56] 42.5 µM | [5] 60.4 µM | [7] 32.3 µM | [8] 35.6 µM | [9] 82.4 µM | [10] 29.4 µM | [11] 35.5 µM | [14] > 100 µM | [17] > 100 µM | [18] > 100 µM | [19] > 100 µM | [57] 34 µM | [23] 68.4 µM | [24] 36.5 µM | [26] 24.9 µM | [27] 52.2 µM | [58] > 100 µM | [31] 24.3 µM | [34] 23 µM | [36] 47 µM | [37] 20.4 µM | [38] 59.8 µM | [40] > 100 µM | [41] 96.4 µM | [42] 41.2 µM | [43] > 100 µM | [45] 30.3 µM | [46] 38.9 µM | [49] > 100 µM | [51] 87.1 µM | [53] > 100 µM | [54] > 100 µM
